Data as given in paper PMC11272584 (Nature Metabolism, 2024).
Where two headings read alike, the source gives them in different places.

Key:
GIPR = settings: cited from earlier work
Excerpt: (§1) Development of similar Gs biased analogues for the GIPR has also been proposed. Although it is not possible to genetically instrument the dual agonistic effects, our results and those of others[33] highlight that decreased recruitment of β-arrestins might benefit the GLP-1R system[36],[37] but not for the GIPR regarding its role in glycaemic control. Ye ...

GLP-1R = molecular target: T1, GLP-1R (Homo sapiens, UniProt P43220); settings: cited from earlier work
T1 construct: expressed in transfected cells; host or cells: parental HEK293A cells and β-arrestin 1/2 KO HEK293A cells
T1 sequence (P43220 24-463, species assumed): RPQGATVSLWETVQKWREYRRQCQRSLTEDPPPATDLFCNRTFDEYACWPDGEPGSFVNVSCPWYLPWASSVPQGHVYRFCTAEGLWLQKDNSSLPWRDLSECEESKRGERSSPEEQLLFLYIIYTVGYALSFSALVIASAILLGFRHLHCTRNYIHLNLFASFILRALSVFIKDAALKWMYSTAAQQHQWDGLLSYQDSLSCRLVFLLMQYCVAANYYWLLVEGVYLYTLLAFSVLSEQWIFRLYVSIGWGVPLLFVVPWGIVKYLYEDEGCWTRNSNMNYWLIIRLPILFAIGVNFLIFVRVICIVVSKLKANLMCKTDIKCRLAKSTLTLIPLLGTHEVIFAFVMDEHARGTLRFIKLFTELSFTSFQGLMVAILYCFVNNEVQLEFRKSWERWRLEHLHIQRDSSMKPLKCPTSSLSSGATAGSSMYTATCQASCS
Excerpt: as §1

GIPR W90Lfs*17 [1] = assay: cAMP accumulation; assay type: cell-based, human; settings: W90Lfs*; HEK293; GIP(1–42) 1 pM–100 nM, 30 min 37 °C; mean of n = 5
Description: HEK293 (CRL-1573, American Type Culture Collection) and β-arrestin 1/2 knockout cells, generated from HEK293A[48], were used for cAMP measurement, homologues competition binding and β-arrestin 2 recruitment. For the internalization assay, endosomal signalling and basal receptor localization experiments, HEK293A (R70507, Thermo Fisher) cells were used. Both cell lines were cultured at 5% CO2 at 37 °C in Roswell Park Memorial Institute GlutaMAX-I supplemented with 10% fetal bovine serum, 180 units ml^−1 penicillin, and 45 g ml^−1 streptomycin. For the cAMP and binding experiments, cells were transfected with the calcium phosphate precipitation method[49]. The polyethyleneimine (PEI) transfection method was used for the β-arrestin 2 recruitment assays[50], endosomal signalling and basal receptor localization assays, while the lipofectamine transfection method was used for the internalization assay.
cAMP production was measured with the DiscoverX Hithunter cAMP assay according to the manufacturer’s protocol (DiscoverX). […] On the day of the assay, the cells were washed twice with HEPES-buffered saline (HBS) and incubated with HBS and 1 mM 3-isobutyl-1-methylxanthine for 30 min at 37 °C. […] After a 3-h incubation on a shaking table in the dark, the cAMP accumulation was measured based on luminescence with a Perkin Elmer EnVision 2104 Multilabel Microplate Reader. […]

GIPR variants (groups) [2] = assay: cAMP accumulation; assay type: cell-based, human
GIPR W90Lfs*17 [3] = settings: GIPR W90Lfs* (ECD), mean, n = 5, duplicate
Description: HEK293 (CRL-1573, American Type Culture Collection) and β-arrestin 1/2 knockout cells, generated from HEK293A[48], were used for cAMP measurement, homologues competition binding and β-arrestin 2 recruitment. […] Both cell lines were cultured at 5% CO2 at 37 °C in Roswell Park Memorial Institute GlutaMAX-I supplemented with 10% fetal bovine serum, 180 units ml^−1 penicillin, and 45 g ml^−1 streptomycin. […] The polyethyleneimine (PEI) transfection method was used for the β-arrestin 2 recruitment assays[50], endosomal signalling and basal receptor localization assays, while the lipofectamine transfection method was used for the internalization assay.
(§4) Measurement of β-arrestin 2 recruitment was performed with a BRET assay. Two days before the assay, the HEK293 cells were transiently transfected with either WT GIPR or the GIPR variants together with the donor Rluc8-Arrestin-3-Sp1, the acceptor mem-linker-citrine-SH3 and the GPCR kinase 2 to facilitate β-arrestin 2 recruitment. On assay day, the cells were washed with PBS and resuspended in PBS supplemented with 5 mmol l^−1 glucose. Subsequently, 85 µl of the cell suspension was transferred to a white 96-well plate and 10 µl of 50 µM coelenterazine-h was added.

SNAP-WT GIPR = settings: HEK293A
SNAP-GIPR M67R = settings: HEK293A
SNAP-GIPR Y73H = settings: HEK293A
SNAP-GIPR V99I = settings: HEK293A
SNAP-GIPR T116R = settings: HEK293A
SNAP-GIPR A150T = settings: HEK293A
SNAP-GIPR A185V = settings: HEK293A
SNAP-GIPR P195R = settings: HEK293A
SNAP-GIPR A207V = settings: HEK293A
GIPR variants (groups) [4] = system: GIPR variants (groups)
Description: Binding experiments were performed simultaneously with the same transiently transfected HEK293 cells used for the cAMP experiments to enable the correlation of receptor expression with signalling between assays. In brief, 1 day before the assay, the transfected cells were seeded in a clear 96-well plate. […] On the assay day, the cells were washed twice with 4 °C binding buffer (50 mM HEPES buffer (pH 7.2), 1 mM CaCl2, 5 mM MgCl2 and 0.5% (wt/vol) bovine serum albumin) and incubated for 15 minutes at 4 °C. […] After incubation, the cells were washed in ice-cold binding buffer and lysed with 200 mmol l^−1 NaOH with 1% sodium dodecyl sulphate for 30 min. The gamma radiation was measured with a 2470 Wizard2 Automatic Gamma Counter.
To obtain Emax, EC50, Bmax, Kd and IC50 values, we analysed the data with the non-linear regression curve fitting program GraphPad Prism Software 9 (GraphPad).
The Bmax was calculated according to the following equation[51]: Bmax=B0×IC50/[L] in which B0 represents the total specific binding and [L] is the ligand concentration. The equilibrium dissociation constant (Kd) was obtained with the equation[51]: Kd=IC50−[L]

GIPR variants (groups) [5] = system: GIPR variants (groups); remark: listed apart in the source
GIPR variants (groups) [6] = system: GIPR variants (groups); remark: listed apart in the source
Description: This prompted us to further assess the role of β-arrestin for GIPR signalling by investigating the endosomal signalling in representative GIPR variants from each of the six in vitro-based groups.
At 48 h post-transfection, cells were washed with HBSS and subsequently maintained in 80 µl HBSS. […] Light emission at 515/20 nm (acceptor; rGFP) and 400/70 nm (donor; Rluc8) was measured using a Tecan Spark multimode microplate reader (Männedorf).

WT GIPR = settings: cited from earlier work
GIPR variants (groups) [7] = assay: β-arrestin 2 recruitment (BRET);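 note: BRET readout of β-arrestin 2 recruitment in transiently transfected HEK293 cells expressing WT GIPR or a GIPR variant plus GPCR kinase 2, Rluc8 donor and citrine acceptor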
Description: Both cell lines were cultured at 5% CO2 at 37 °C in Roswell Park Memorial Institute GlutaMAX-I supplemented with 10% fetal bovine serum, 180 units ml^−1 penicillin, and 45 g ml^−1 streptomycin. […] The polyethyleneimine (PEI) transfection method was used for the β-arrestin 2 recruitment assays[50], endosomal signalling and basal receptor localization assays, while the lipofectamine transfection method was used for the internalization assay.
as §4

WT male mice = assay: IPGTT in WT male mice; assay type: in vivo, mouse; design: Mean difference in glucose (WT + Veh. vs. WT + GLP-1): unit not given here; settings: for Mean difference in glucose (WT + Veh. vs. WT + GLP-1): injected 15 min before glucose, n = 14 veh., 13
Excerpt: (§2) We therefore explored the functional relationship between β-arrestin recruitment and GIP-stimulated glucose regulation by conducting pharmacological interventions in a murine genetic global germline β-arrestin 2 (Arrb2) knockout (KO) model.
(§3) Studies were approved by and performed according to the guidelines of the Institutional Animal Care and Use Committee of Duke University. Male Arrb2 KO mice (Arrb2^−/−) ~12–15 weeks of age were generously provided by Drs Howard Rockman and Robert Lefkowitz at Duke University[70]. The mice were kept in standard housing conditions with a temperature of 20–26 °C and a 12-h dark/light cycle to ensure the physiological and psychological wellbeing of the mice. Mice were fed research diets 5053. We restrictedly used male mice because of the potential impact of the sexual dimorphism, that is, the oestrus cycle in female mice on cardiometabolic traits, resulting in unwanted variability and to ensure comparability to existing research predominantly using male mice[71]. The mice were subjected to an IPGTT. […] Data collection and analysis were not randomized or blind to the conditions of the experiments. The statistical analysis was performed in GraphPad Prism.

male Arrb2 KO mice = assay: IPGTT in male Arrb2 KO mice; assay type: in vivo, mouse; design: Mean difference in glucose (Arrb2-/- + Veh. vs. Arrb2-/- + GLP-1): unit not given here; settings: for Mean difference in glucose (Arrb2-/- + Veh. vs. Arrb2-/- + GLP-1): injected 15 min before glucose, n = 13 veh., 10
Excerpt: as §2, §3

[8] = system: β cell-specific β-arrestin 2 KO female mice; settings: cited from earlier work
Excerpt: In contrast, GIP-potentiated insulin secretion relied on β-a ...

[9] = M67R, Y73H, V99I, T116R, A150T, A185V, P195R and A207V
[10] = R12Q, L13F, R38L, A294V, I299V, E354Q, S415I, E418K, G449A and E463Q
[11] = T25R, R43G, R164Q, H166Y, I221M and K397N

Substance: tirzepatide: GIPR–GLP-1R co-agonist
- GIPR activation (GIPR): activation of GIPR as native GIP
- cAMP pathway activation at the GLP-1R (GLP-1R): full activation of the cAMP pathway
- β-arrestin recruitment to the GLP-1R (GLP-1R): less recruitment of β-arrestin

Substance: glucose-dependent insulinotropic polypeptide [GIP]
- cAMP (Emax) (GIPR W90Lfs*17 [1]): 11 % of WT GIPR activity
- cAMP signalling activity at 100 pM GIP (GIPR variants (groups) [2]; 29 partial and complete LoF variants, 100 pM GIP): < 50 % of WT
- cAMP production class (GIPR variants (groups) [2]; [9]): LoF (defined as <50% activity in either pathway)
- cAMP production class (GIPR variants (groups) [2]; [10]): WT-like
- cAMP production at higher GIP doses (GIPR variants (groups) [2]; R183Q, R190Q and R300W, higher GIP doses): cAMP production was restored
- cAMP signalling (GIPR variants (groups) [2]; R190Q and E288G): impaired cAMP signalling
- cAMP production class (GIPR variants (groups) [2]; [11]): maintained cAMP production
- cAMP signalling at 100 pM GIP (GIPR variants (groups) [2]; T116R, R183Q, R190Q and R300W, 100 pM GIP): no cAMP signalling
- logEC50 (Arrestin) (GIPR W90Lfs*17 [3]; Hill slope 1.0): -10.8
- Arrestin (Emax) (GIPR W90Lfs*17 [3]; normalized to WT GIPR): 15
- Emax (Dose-response), internalization (SNAP-WT GIPR; GIP 1 nM–1 µM, 37 °C, n = 4): 100 % of maximal SNAP-WT GIPR inte
- LogEC50 (Dose-response), internalization (SNAP-WT GIPR; Hill slope 1.0, n = 4): -7.5
- Emax (Dose-response), internalization (SNAP-GIPR M67R; GIP 1 nM–1 µM, 37 °C, n = 4): 98 % of maximal SNAP-WT GIPR inte
- LogEC50 (Dose-response), internalization (SNAP-GIPR M67R; Hill slope 1.0, n = 4): -6.6
- Emax (Dose-response), internalization (SNAP-GIPR Y73H; GIP 1 nM–1 µM, 37 °C, n = 4): 101 % of maximal SNAP-WT GIPR inte
- LogEC50 (Dose-response), internalization (SNAP-GIPR Y73H; Hill slope 1.0, n = 4): -7.4
- Emax (Dose-response), internalization (SNAP-GIPR V99I; GIP 1 nM–1 µM, 37 °C, n = 4): 92 % of maximal SNAP-WT GIPR inte
- LogEC50 (Dose-response), internalization (SNAP-GIPR V99I; Hill slope 1.0, n = 4): -6.9
- Emax (Dose-response), internalization (SNAP-GIPR T116R; GIP 1 nM–1 µM, 37 °C, n = 4): 93 % of maximal SNAP-WT GIPR inte
- LogEC50 (Dose-response), internalization (SNAP-GIPR T116R; Hill slope 1.0, n = 4): -7.6
- Emax (Dose-response), internalization (SNAP-GIPR A150T; GIP 1 nM–1 µM, 37 °C, n = 4): 98 % of maximal SNAP-WT GIPR inte
- LogEC50 (Dose-response), internalization (SNAP-GIPR A150T; Hill slope 1.0, n = 4): -7.6
- Emax (Dose-response), internalization (SNAP-GIPR A185V; GIP 1 nM–1 µM, 37 °C, n = 4): 89 % of maximal SNAP-WT GIPR inte
- LogEC50 (Dose-response), internalization (SNAP-GIPR A185V; Hill slope 1.0, n = 4): -7.5
- Emax (Dose-response), internalization (SNAP-GIPR P195R; GIP 1 nM–1 µM, 37 °C, n = 4): 77 % of maximal SNAP-WT GIPR inte
- LogEC50 (Dose-response), internalization (SNAP-GIPR P195R; Hill slope 1.0, n = 4): -7.2
- Emax (Dose-response), internalization (SNAP-GIPR A207V; GIP 1 nM–1 µM, 37 °C, n = 4): 98 % of maximal SNAP-WT GIPR inte
- LogEC50 (Dose-response), internalization (SNAP-GIPR A207V; Hill slope 1.0, n = 4): -7.6
- GIP binding (GIPR variants (groups) [4]; R190Q and E288G): maintained GIP binding
- GIP binding (GIPR variants (groups) [4]; S64P, C84Pfs*70, R101H, Y258Sfs*50 and Q400Gfs*56): undetectable GIP binding
- Binding capacity of GIP (Bmax) (GIPR variants (groups) [4]; all 29 LoF variants): impaired
- Level of internalization (GIPR variants (groups) [5]; M67R, V99I and P195R): slightly diminished internalization
- Internalization (GIPR variants (groups) [5]; R190Q and E288G (LoFcAMP/LoFarr)): did not internalize
- Level of internalization (GIPR variants (groups) [5]; Y73H, T116R, A150T, A185V and A207V): nearly identical levels of internalization as the WT GIPR
- Internalization (GIPR variants (groups) [5]; all eight LoFcAMP/WT-likearr variants): preserved internalization capabilities
- Endosomal signalling (GIPR variants (groups) [6]; variants that retained β-arrestin recruitment): effectively recruited mGs to early endosomes
- Endosomal signalling (GIPR variants (groups) [6]; variants with diminished β-arrestin recruitment): minimal to no signalling from early endosomes
- β-arrestin isoform recruitment (WT GIPR): predominantly recruits β-arrestin 2 over β-arrestin 1
- β-arrestin recruitment (GIPR variants (groups) [7]; 21 of the 29 variants with impaired cAMP production (LoFcAMP/LoFarr)): impaired β-arrestin recruitment
- β-arrestin recruitment class (GIPR variants (groups) [7]; [9]): WT-like
- β-arrestin recruitment class (GIPR variants (groups) [7]; [10]): WT-like
- β-arrestin recruitment (GIPR variants (groups) [7]; R190Q and E288G): impaired cAMP signalling and β-arrestin recruitment
- β-arrestin recruitment class (GIPR variants (groups) [7]; [11]): low β-arrestin recruitment
- β-arrestin 2 recruitment potency (GIPR variants (groups) [7]; most of 47 variants, apart from a few lacking recruitment): no major differences in potency

Substance: glucagon-like peptide-1 [GLP-1]
- Blood glucose lowering in IPGTT (WT male mice; WT male mice, 15 min before IPGTT): significantly lowered blood glucose levels
- Mean difference in glucose (WT + Veh. vs. WT + GLP-1) (WT male mice; time 0, P = 0.031): 19.9
- Mean difference in glucose (WT + Veh. vs. WT + GLP-1) (WT male mice; time 15 minutes, P = 0.025): 40.3
- Mean difference in glucose (WT + Veh. vs. WT + GLP-1) (WT male mice; time 30 minutes, P = 0.094): 28.3
- Mean difference in glucose (WT + Veh. vs. WT + GLP-1) (WT male mice; time 60 minutes, P = 0.535): 8.13
- Mean difference in glucose (WT + Veh. vs. WT + GLP-1) (WT male mice; time 120 minutes, P = 0.741): -1.82
- Blood glucose lowering in IPGTT (male Arrb2 KO mice; male Arrb2 KO mice, 15 min before IPGTT): able to lower blood glucose
- Mean difference in glucose (Arrb2-/- + Veh. vs. Arrb2-/- + GLP-1) (male Arrb2 KO mice; time 0, P = 0.011): 20.9
- Mean difference in glucose (Arrb2-/- + Veh. vs. Arrb2-/- + GLP-1) (male Arrb2 KO mice; time 15 minutes, P = 0.008): 44.9
- Mean difference in glucose (Arrb2-/- + Veh. vs. Arrb2-/- + GLP-1) (male Arrb2 KO mice; time 30 minutes, P = 0.0038): 39.3
- Mean difference in glucose (Arrb2-/- + Veh. vs. Arrb2-/- + GLP-1) (male Arrb2 KO mice; time 60 minutes, P = 0.216): 8.48
- Mean difference in glucose (Arrb2-/- + Veh. vs. Arrb2-/- + GLP-1) (male Arrb2 KO mice; time 120 minutes, P = 0.796): 3.39
- Insulinotropic properties (male Arrb2 KO mice; β-arrestin KO mice): maintained its insulinotropic properties
- Acute glycaemic control [8]: reduced acute GLP-1-mediated glycaemic control
